Experimental data taken from the supplement of paper PMC11208160.

Experiment: recombinant UMI read abundance after kanamycin selection (control-corrected) (log10(CPM+1)); higher = more efficient recombination; extreme values may be limits of the assay; sequences stand for … in AGTGCAGAGAAAATCGGCCAGTTTTCTCTGCCTGCAGTCCGCATGCCGTGGGACCCCTTGGGTTCTAACCTGTTGCCTAGATTTATGCAGCGGACTGCCTTTCTCCCAAAGTGATAAACCGG…AGGTTGGTTTCACT; site = the 11-nt donor
Method in brief: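 Two replicates each of selected and unselected plating were used in this pooled Escherichia coli screen of donor and donor-binding-loop pairs for the IS621 bridge recombinase. Selection was with IPTG (0.07 mM) and kanamycin. Counts of recombinant UMIs, amplified across the donor–target junction, were converted to CPM, averaged, scaled by control-derived factors and reported as log10(CPM+1).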
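Note: IS621 bridge recombinase in Escherichia coli cells against a fixed T5 target plasmid.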

Row | Sequence | recombinant UMI read abundance (log10)
1 | CGCCGTACATGGACCGGTTTTCCCGGTAATCCGTATTTGCT (site CACCGTACTAG) | 0.33
2 | CGCCGTACATGGACCGGTTTTCCCGGTAATCCGTATTTGCT (site CCCCGTACTAG) | 0.907
3 | CGCCGTACATGGACCGGTTTTCCCGGTAATCCGTATTTGCT (site CGACGTACTAG) | 0.00883
4 | CGCCGTACATGGACCGGTTTTCCCGGTAATCCGTATTTGCT (site CGCAGTACTAG) | 0.331
5 | CGCCGTACATGGACCGGTTTTCCCGGTAATCCGTATTTGCT (site CGCCATACTAG) | 0.922
6 | CGCCGTACATGGACCGGTTTTCCCGGTAATCCGTATTTGCT (site CGCCCTACTAG) | 0.301
7 | CGCCGTACATGGACCGGTTTTCCCGGTAATCCGTATTTGCT (site CGCCGAACTAG) | 0
8 | CGCCGTACATGGACCGGTTTTCCCGGTAATCCGTATTTGCT (site CGCCGCACTAG) | 0.796
9 | CGCCGTACATGGACCGGTTTTCCCGGTAATCCGTATTTGCT (site CGCCGGACTAG) | 0
10 | CGCCGTACATGGACCGGTTTTCCCGGTAATCCGTATTTGCT (site CGCCGTACTAA) | 0.0116
11 | CGCCGTACATGGACCGGTTTTCCCGGTAATCCGTATTTGCT (site CGCCGTACTAC) | 0.00604
12 | CGCCGTACATGGACCGGTTTTCCCGGTAATCCGTATTTGCT (site CGCCGTACTAG) | 1.59
13 | CGCCGTACATGGACCGGTTTTCCCGGTAATCCGTATTTGCT (site CGCCGTACTAT) | 0.0196
14 | CGCCGTACATGGACCGGTTTTCCCGGTAATCCGTATTTGCT (site CGCCGTACTCG) | 0.111
15 | CGCCGTACATGGACCGGTTTTCCCGGTAATCCGTATTTGCT (site CGCCGTACTGG) | 0
16 | CGCCGTACATGGACCGGTTTTCCCGGTAATCCGTATTTGCT (site CGCCGTACTTG) | 0.00335
17 | CGCCGTACATGGACCGGTTTTCCCGGTAATCCGTATTTGCT (site CGCCGTCCTAG) | 0
18 | CGCCGTACATGGACCGGTTTTCCCGGTAATCCGTATTTGCT (site CGCCGTGCTAG) | 0.065
19 | CGCCGTACATGGACCGGTTTTCCCGGTAATCCGTATTTGCT (site CGCCGTTCTAG) | 0
20 | CGCCGTACATGGACCGGTTTTCCCGGTAATCCGTATTTGCT (site CGCCTTACTAG) | 0
21 | CGCCGTACATGGACCGGTTTTCCCGGTAATCCGTATTTGCT (site CGCGGTACTAG) | 0
22 | CGCCGTACATGGACCGGTTTTCCCGGTAATCCGTATTTGCT (site CGCTGTACTAG) | 0
23 | CGCCGTACATGGACCGGTTTTCCCGGTAATCCGTATTTGCT (site CGGCGTACTAG) | 0.0034
24 | CGCCGTACATGGACCGGTTTTCCCGGTAATCCGTATTTGCT (site CGTCGTACTAG) | 0
25 | CGCCGTACATGGACCGGTTTTCCCGGTAATCCGTATTTGCT (site CTCCGTACTAG) | 0

Row | Sequence | recombinant UMI read abundance (log10)
26 | CGCCGTACATGGACCGGTTTTCCCGGTAATCCGTATTTGCT (site GGCCGTACTAG) | 0.00569
27 | CGCCGTACATGGACCGGTTTTCCCGGTAATCCGTATTTGCT (site TGCCGTACTAG) | 0.0708
28 | CGCCGTACATGGACCGGTTTTCCCGGTAATCCGTATTTGTT (site CGCCGTACTAA) | 1.23
29 | CGCCGTACATGGACCGGTTTTCCCGGTAATCCGTATTTGTT (site CGCCGTACTAC) | 0.00659
30 | CGCCGTACATGGACCGGTTTTCCCGGTAATCCGTATTTGTT (site CGCCGTACTAG) | 0.486
31 | CGCCGTACATGGACCGGTTTTCCCGGTAATCCGTATTTGTT (site CGCCGTACTAT) | 0.0268
32 | CGCCGTGCATGGACCGGTTTTCCCGGTAATCCGTATTTGCT (site CGCCGTACTAG) | 1.29
33 | CGCCGTGCATGGACCGGTTTTCCCGGTAATCCGTATTTGCT (site CGCCGTCCTAG) | 0.00563
34 | CGCCGTGCATGGACCGGTTTTCCCGGTAATCCGTATTTGCT (site CGCCGTGCTAG) | 1.97
35 | CGCCGTGCATGGACCGGTTTTCCCGGTAATCCGTATTTGCT (site CGCCGTTCTAG) | 0.0147
36 | CGCCGTTCATGGACCGGTTTTCCCGGTAATCCGTATTTGCT (site CGCCGTACTAG) | 0
37 | CGCCGTTCATGGACCGGTTTTCCCGGTAATCCGTATTTGCT (site CGCCGTCCTAG) | 0.00374
38 | CGCCGTTCATGGACCGGTTTTCCCGGTAATCCGTATTTGCT (site CGCCGTGCTAG) | 0
39 | CGCCGTTCATGGACCGGTTTTCCCGGTAATCCGTATTTGCT (site CGCCGTTCTAG) | 2.41
40 | CGCCTGACATGGACCGGTTTTCCCGGTAATCCGTATTTGAG (site CGCCTGACTCT) | 0.947
41 | CGCGAGTCATGGACCGGTTTTCCCGGTAATCCGTATTTGCC (site CGAGAGTCTGG) | 0
42 | CGCGAGTCATGGACCGGTTTTCCCGGTAATCCGTATTTGCC (site CGCGAGTCTGG) | 2.43
43 | CGCGAGTCATGGACCGGTTTTCCCGGTAATCCGTATTTGCC (site CGGGAGTCTGG) | 0
44 | CGCGAGTCATGGACCGGTTTTCCCGGTAATCCGTATTTGCC (site CGTGAGTCTGG) | 0.681
45 | CGCGAGTCATGGACCGGTTTTCCCGGTAATCCGTATTTGTC (site CGCGAGTCTGA) | 2.8
46 | CGCGGGACATGGACCGGTTTTCCCGGTAATCCGTATTTGGC (site CGCGGGACTGC) | 2.25
47 | CGCTAGACATGGACCGGTTTTCCCGGTAATCCGTATTTGAG (site CGATAGACTCT) | 0.0154
48 | CGCTAGACATGGACCGGTTTTCCCGGTAATCCGTATTTGAG (site CGCTAGACTCT) | 1.64
49 | CGCTAGACATGGACCGGTTTTCCCGGTAATCCGTATTTGAG (site CGGTAGACTCT) | 0.181
50 | CGCTAGACATGGACCGGTTTTCCCGGTAATCCGTATTTGAG (site CGTTAGACTCT) | 0.00455

Row | Sequence | recombinant UMI read abundance (log10)
51 | CGCTCCTCATGGACCGGTTTTCCCGGTAATCCGTATTTGCC (site CACTCCTCTGG) | 2.35
52 | CGCTCCTCATGGACCGGTTTTCCCGGTAATCCGTATTTGCC (site CCCTCCTCTGG) | 1.72
53 | CGCTCCTCATGGACCGGTTTTCCCGGTAATCCGTATTTGCC (site CGCTCCTCTGG) | 3.14
54 | CGCTCCTCATGGACCGGTTTTCCCGGTAATCCGTATTTGCC (site CTCTCCTCTGG) | 2.25
55 | CGCTGTCCATGGACCGGTTTTCCCGGTAATCCGTATTTGCA (site CGCTGTCCTTG) | 0.989
56 | CGCTGTGCATGGACCGGTTTTCCCGGTAATCCGTATTTGCA (site CGCTGTGCTTG) | 1.87
57 | CGGAACACATGGACCGGTTTTCCCGGTAATCCGTATTTGCA (site AGGAAGACTTG) | 0.0118
58 | CGGAACACATGGACCGGTTTTCCCGGTAATCCGTATTTGCA (site CGGAACACTTG) | 2.5
59 | CGGAAGACATGGACCGGTTTTCCCGGTAATCCGTATTTGCC (site AGGAAGACTTG) | 0
60 | CGGAAGACATGGACCGGTTTTCCCGGTAATCCGTATTTGCC (site CGGAAGACTGG) | 2.59
61 | CGGAAGCCATGGACCGGTTTTCCCGGTAATCCGTATTTGTC (site CGGAAGCCTGA) | 0
62 | CGGAAGCCATGGACCGGTTTTCCCGGTAATCCGTATTTGTC (site CGGAATCCTAA) | 0.00548
63 | CGGAATACATGGACCGGTTTTCCCGGTAATCCGTATTTGTT (site CGGAATACTAA) | 2.18
64 | CGGAATACATGGACCGGTTTTCCCGGTAATCCGTATTTGTT (site CGGAATCCTAA) | 0
65 | CGGAATACATGGACCGGTTTTCCCGGTAATCCGTATTTGTT (site CGGAATGCTAA) | 0
66 | CGGAATACATGGACCGGTTTTCCCGGTAATCCGTATTTGTT (site CGGAATTCTAA) | 0
67 | CGGAATCCATGGACCGGTTTTCCCGGTAATCCGTATTTGTG (site CGGAATCCTAA) | 0
68 | CGGAATCCATGGACCGGTTTTCCCGGTAATCCGTATTTGTG (site CGGAATCCTCA) | 0.656
69 | CGGAATCCATGGACCGGTTTTCCCGGTAATCCGTATTTGTG (site CGGAATCCTGA) | 0
70 | CGGAATCCATGGACCGGTTTTCCCGGTAATCCGTATTTGTG (site CGGAATCCTTA) | 0
71 | CGGAATCCATGGACCGGTTTTCCCGGTAATCCGTATTTGTT (site ACGAATCCTAA) | 0.0109
72 | CGGAATCCATGGACCGGTTTTCCCGGTAATCCGTATTTGTT (site AGAAATCCTAA) | 0
73 | CGGAATCCATGGACCGGTTTTCCCGGTAATCCGTATTTGTT (site AGGAAACCTAA) | 0
74 | CGGAATCCATGGACCGGTTTTCCCGGTAATCCGTATTTGTT (site AGGAATCCTAA) | 0
75 | CGGAATCCATGGACCGGTTTTCCCGGTAATCCGTATTTGTT (site AGGAATCCTAG) | 0
